Source: patent publication US8980888B2, “Pyrazole derivative” (Mochida Pharmaceutical Co., Ltd., priority 2013, dated 2015)

Target: T1, Human PDE10 (Homo sapiens, UniProt Q9Y233)
T1 construct: purchased BPA Bioscience (so in the source)
Assay: Human PDE10 inhibitory effect (IMAP TR-FRET enzyme inhibition assay)
Format: biochemical
Settings: PDE10 inhibitory activity, cAMP substrate
Experimental: (Evaluation of Enzyme Inhibitory Activity: Human PDE10 Inhibitory Effect)
IMAP TR-FRET Phosphodiersterase Evaluation Assay Kit (Molecular Device) was used for the measurement. Ten μL of a diluted test compound having each concentration and 5 μL of the enzyme PDE10 (BPA Bioscience) that had been diluted to 2 ng/mL with 1×IMAP Reaction Buffer (prepared with 5× included with the kit, 10 mM Tris-HCl, pH=7.2, 10 mM MgCl2, 0.05% NaN3, and 0.1% BSA) containing 0.1% BSA were added to a 384-well plate (Corning). The obtained mixture was then pre-incubated at room temperature for 5 minutes. Thereafter, 5 μL of cAMP substrate solution which was included with the kit and diluted to 400 nM with 1×IMAP Reaction Buffer containing 0.1% BSA, was added to the reaction solution, and the obtained mixture was reacted at room temperature for 60 minutes. Thereafter, 60 μL of an IMAP TR-FRET Binding solution included with the kit was further added to the reaction solution, and the obtained mixture was then left for 3 hours or more. Subsequently, using ARVO SX (PerkinElmer), the fluorescent intensity of Terbium (Emission=490 nm) and TR-FRET (Emission=520 nm) in the reaction solution were measured at an excitation wavelength of 340 nm, so as to calculate the amount of the generated 5′-AMP. The count of a well to which a solvent had been added instead of the test compound was set at 0%, and the count of a well to which the enzyme PDE10 had not been added was set at 100%. Thus, the inhibitory activity of each test compound was calculated.
The PDE10 inhibitory activity of the test compound was indicated with an IC50 value. […] The test compounds are shown in Table 3 (Table 3-1 and Table 3-2).

T1 sequence (Q9Y233 whole entry): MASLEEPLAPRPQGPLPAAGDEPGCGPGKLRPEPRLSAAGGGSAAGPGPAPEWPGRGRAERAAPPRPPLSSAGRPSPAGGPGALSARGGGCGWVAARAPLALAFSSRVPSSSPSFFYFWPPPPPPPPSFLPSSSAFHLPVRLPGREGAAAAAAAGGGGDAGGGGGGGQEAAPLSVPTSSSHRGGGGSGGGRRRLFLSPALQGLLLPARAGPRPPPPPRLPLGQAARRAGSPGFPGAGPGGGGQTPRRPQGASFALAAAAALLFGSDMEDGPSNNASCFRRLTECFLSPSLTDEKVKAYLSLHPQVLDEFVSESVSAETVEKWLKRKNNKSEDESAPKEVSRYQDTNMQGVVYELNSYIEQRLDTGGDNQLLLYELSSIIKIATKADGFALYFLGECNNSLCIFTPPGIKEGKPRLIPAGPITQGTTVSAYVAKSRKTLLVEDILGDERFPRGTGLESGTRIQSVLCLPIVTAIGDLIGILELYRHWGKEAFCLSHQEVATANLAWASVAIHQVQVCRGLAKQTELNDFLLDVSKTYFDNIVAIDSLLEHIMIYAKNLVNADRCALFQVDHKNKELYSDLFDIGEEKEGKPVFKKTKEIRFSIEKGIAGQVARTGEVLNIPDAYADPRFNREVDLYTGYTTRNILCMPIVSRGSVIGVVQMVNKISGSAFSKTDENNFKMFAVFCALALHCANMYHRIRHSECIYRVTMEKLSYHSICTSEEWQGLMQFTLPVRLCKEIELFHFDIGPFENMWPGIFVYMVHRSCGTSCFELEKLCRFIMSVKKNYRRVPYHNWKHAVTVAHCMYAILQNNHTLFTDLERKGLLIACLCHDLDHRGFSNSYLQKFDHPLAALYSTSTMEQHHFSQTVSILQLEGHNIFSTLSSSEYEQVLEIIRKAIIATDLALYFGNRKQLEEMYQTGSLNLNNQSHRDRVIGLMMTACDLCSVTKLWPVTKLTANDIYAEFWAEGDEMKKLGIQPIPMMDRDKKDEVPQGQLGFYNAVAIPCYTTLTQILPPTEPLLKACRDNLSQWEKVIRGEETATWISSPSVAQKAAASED

| IC50 [nM] | SMILES |
| --- | --- |
| < 5 | Cc1nc(-c2cnn(C)c2C(=O)NC2CCn3nc(-c4ccccc4)nc3C2)sc1C (stereo not shown) [Example 5.4, 4-(4,5-dimethylthiazol-2-yl)-1-methyl-N-(2-phenyl-5,6,7,8-tetrahydro-[1,2,4]triazolo[1,5-a]pyridin-7-yl)-1H-pyrazole-5-carboxamide] |
| 5 to 100 | Cn1ncc(-c2nc(C(F)(F)F)cs2)c1C(=O)NC1CCn2nc(-c3ccccc3)nc2C1 (stereo not shown) [Example 5.9] |
| 5 to 100 | Cn1ncc(-c2nc(C#N)cs2)c1C(=O)NC1CCn2nc(-c3ccccc3)nc2C1 (stereo not shown) [Example 5.10, 4-(4-cyanothiazol-2-yl)-1-methyl-N-(2-phenyl-5,6,7,8-tetrahydro-[1,2,4]triazolo[1,5-a]pyridin-7-yl)-1H-pyrazole-5-carboxamide] |
| 5 to 100 | CCc1nnc(-c2cnn(C)c2C(=O)NC2CCn3nc(-c4ccccc4)nc3C2)s1 (stereo not shown) [Example 5.12, 4-(5-ethyl-1,3,4-thiadiazol-2-yl)-1-methyl-N-(2-phenyl-5,6,7,8-tetrahydro-[1,2,4]triazolo[1,5-a]pyridin-7-yl)-1H-pyrazole-5-carboxamide] |
| 5 to 100 | Cc1nc(-c2cnn(C)c2C(=O)NC2CCn3nc(-c4ccccc4)nc3C2)c(Br)s1 (stereo not shown) [Example 5.13, 4-(5-bromo-2-methylthiazol-4-yl)-1-methyl-N-(2-phenyl-5,6,7,8-tetrahydro-[1,2,4]triazolo[1,5-a]pyridin-7-yl)-1H-pyrazole-5-carboxamide] |
| 5 to 100 | Cc1cnc(C)c(-c2cnn(C)c2C(=O)NC2CCn3nc(-c4ccccc4)nc3C2)n1 (stereo not shown) [Example 5.14, 4-(3,6-dimethylpyrazin-2-yl)-1-methyl-N-(2-phenyl-5,6,7,8-tetrahydro-[1,2,4]triazolo[1,5-a]pyridin-7-yl)-1H-pyrazole-5-carboxamide] |
| 5 to 100 | Cc1nsc(-c2cnn(C)c2C(=O)NC2CCn3nc(-c4ccccc4)nc3C2)n1 (stereo not shown) [Example 5.15, 1-methyl-4-(3-methyl-1,2,4-thiadiazol-5-yl)-N-(2-phenyl-5,6,7,8-tetrahydro-[1,2,4]triazolo[1,5-a]pyridin-7-yl)-1H-pyrazole-5-carboxamide] |
| 5 to 100 | Cc1csc(-c2cnn(C)c2C(=O)NC2CCn3nc(-c4ccccc4)nc3C2)n1 (stereo not shown) [Example 5.18, 1-methyl-4-(4-methylthiazol-2-yl)-N-(2-phenyl-5,6,7,8-tetrahydro-[1,2,4]triazolo[1,5-a]pyridin-7-yl)-1H-pyrazole-5-carboxamide] |
| 5 to 100 | Cc1cccc(-c2cnn(C)c2C(=O)NC2CCn3nc(-c4ccccc4)nc3C2)n1 (stereo not shown) [Example 5.19, 1-methyl-4-(6-methylpyridin-2-yl)-N-(2-phenyl-5,6,7,8-tetrahydro-[1,2,4]triazolo[1,5-a]pyridin-7-yl)-1H-pyrazole-5-carboxamide] |
| 5 to 100 | Cc1ccnc(-c2cnn(C)c2C(=O)NC2CCn3nc(-c4ccccc4)nc3C2)c1 (stereo not shown) [Example 5.20, 1-methyl-4-(4-methylpyridin-2-yl)-N-(2-phenyl-5,6,7,8-tetrahydro-[1,2,4]triazolo[1,5-a]pyridin-7-yl)-1H-pyrazole-5-carboxamide] |
| 5 to 100 | Cn1ncc(-c2cccc(C(F)(F)F)n2)c1C(=O)NC1CCn2nc(-c3ccccc3)nc2C1 (stereo not shown) [Example 5.21, 1-methyl-N-(2-phenyl-5,6,7,8-tetrahydro-[1,2,4]triazolo[1,5-a]pyridin-7-yl)-4-(6-(trifluoromethyl)pyridin-2-yl)-1H-pyrazole-5-carboxamide] |
| 5 to 100 | Cc1cccnc1-c1cnn(C)c1C(=O)NC1CCn2nc(-c3ccccc3)nc2C1 (stereo not shown) [Example 5.22, 1-methyl-4-(3-methylpyridin-2-yl)-N-(2-phenyl-5,6,7,8-tetrahydro-[1,2,4]triazolo[1,5-a]pyridin-7-yl)-1H-pyrazole-5-carboxamide] |
| 5 to 100 | Cn1ncc(-c2cc(F)ccn2)c1C(=O)NC1CCn2nc(-c3ccccc3)nc2C1 (stereo not shown) [Example 5.23, 4-(4-fluoropyridin-2-yl)-1-methyl-N-(2-phenyl-5,6,7,8-tetrahydro-[1,2,4]triazolo[1,5-a]pyridin-7-yl)-1H-pyrazole-5-carboxamide] |
| 5 to 100 | Cn1ncc(-c2ccc(F)cn2)c1C(=O)NC1CCn2nc(-c3ccccc3)nc2C1 (stereo not shown) [Example 5.24, 4-(5-fluoropyridin-2-yl)-1-methyl-N-(2-phenyl-5,6,7,8-tetrahydro-[1,2,4]triazolo[1,5-a]pyridin-7-yl)-1H-pyrazole-5-carboxamide] |
| 5 to 100 | COc1ccnc(-c2cnn(C)c2C(=O)NC2CCn3nc(-c4ccccc4)nc3C2)c1 (stereo not shown) [Example 5.25, 4-(4-methoxypyridin-2-yl)-1-methyl-N-(2-phenyl-5,6,7,8-tetrahydro-[1,2,4]triazolo[1,5-a]pyridin-7-yl)-1H-pyrazole-5-carboxamide] |
| 5 to 100 | Cc1ccc(-c2cnn(C)c2C(=O)NC2CCn3nc(-c4ccccc4)nc3C2)nc1 (stereo not shown) [Example 5.26, 1-methyl-4-(5-methylpyridin-2-yl)-N-(2-phenyl-5,6,7,8-tetrahydro-[1,2,4]triazolo[1,5-a]pyridin-7-yl)-1H-pyrazole-5-carboxamide] |
| 5 to 100 | Cn1ncc(-c2ncccc2C#N)c1C(=O)NC1CCn2nc(-c3ccccc3)nc2C1 (stereo not shown) [Example 5.27, 4-(3-cyanopyridin-2-yl)-1-methyl-N-(2-phenyl-5,6,7,8-tetrahydro-[1,2,4]triazolo[1,5-a]pyridin-7-yl)-1H-pyrazole-5-carboxamide] |

Further lines, the compound ahead of its results:

| SMILES | IC50 [nM] |
| --- | --- |
| C[C@H]1CCCN1c1nc2cc(NC(=O)c3c(-c4nc(C(F)(F)F)cs4)cnn3C)ccn2n1 [Example 4.10] | < 5 |
| Cc1cc(C)nc(-c2cnn(C)c2C(=O)Nc2ccn3nc(N4CC[C@H](F)C4)nc3c2)c1 [Example 4.20, (S)-4-(4,6-dimethylpyridin-2-yl)-N-(2-(3-fluoropyrrolidin-1-yl)-[1,2,4]triazolo[1,5-a]pyridin-7-yl)-1-methyl-1H-pyrazole-5-carboxamide] | < 5 |
| Cc1ccnc(-c2cnn(C)c2C(=O)Nc2ccn3nc(N4CCCC4)nc3c2)c1 [Example 4.30, 1-methyl-4-(4-methylpyridin-2-yl)-N-(2-(pyrrolidin-1-yl)-[1,2,4]triazolo[1,5-a]pyridin-7-yl)-1H-pyrazole-5-carboxamide] | < 5 |
| C[C@@H]1CN(c2nc3cc(NC(=O)c4c(-c5nc(C(F)F)c(Cl)s5)cnn4C)ccn3n2)C[C@H](C)O1 [Example 4.36, 4-(5-chloro-4-(difluoromethyl)thiazol-2-yl)-N-(2-((2S,6R)-2,6-dimethylmorpholino)-[1,2,4]triazolo[1,5-a]pyridin-7-yl)-1-methyl-1H-pyrazole-5-carboxamide] | 5 to 100 |
| Cc1sc(-c2cnn(C)c2C(=O)NC2CCn3nc(-c4ccccc4)nc3C2)nc1C(F)F (stereo not shown) [Example 5.1, 4-(4-(difluoromethyl)-5-methylthiazol-2-yl)-1-methyl-N-(2-phenyl-5,6,7,8-tetrahydro-[1,2,4]triazolo[1,5-a]pyridin-7-yl)-1H-pyrazole-5-carboxamide] | < 5 |
| Cn1ncc(-c2nc(C(F)F)cs2)c1C(=O)NC1CCn2nc(-c3ccc(F)cc3)nc2C1 (stereo not shown) [Example 5.2, 4-(4-(difluoromethyl)thiazol-2-yl)-N-(2-(4-fluorophenyl)-5,6,7,8-tetrahydro-[1,2,4]triazolo[1,5-a]pyridin-7-yl)-1-methyl-1H-pyrazole-5-carboxamide] | 5 to 100 |
| Cn1ncc(-c2nc(C(F)F)c(Cl)s2)c1C(=O)NC1CCn2nc(-c3ccc(F)cc3)nc2C1 (stereo not shown) [Example 5.3, 4-(5-chloro-4-(difluoromethyl)thiazol-2-yl)-N-(2-(4-fluorophenyl)-5,6,7,8-tetrahydro-[1,2,4]triazolo[1,5-a]pyridin-7-yl)-1-methyl-1H-pyrazole-5-carboxamide] | < 5 |
| Cn1ncc(-c2nc(C(F)F)c(C3CC3)s2)c1C(=O)NC1CCn2nc(-c3ccccc3)nc2C1 (stereo not shown) [Example 5.8, 4-(5-cyclopropyl-4-(difluoromethyl)thylthiazol-2-yl)-1-methyl-N-(2-phenyl-5,6,7,8-tetrahydro-[1,2,4]triazolo[1,5-a]pyridin-7-yl)-1H-pyrazole-5-carboxamide] | 5 to 100 |
| CCOCCc1sc(-c2cnn(C)c2C(=O)NC2CCn3nc(-c4ccccc4)nc3C2)nc1C (stereo not shown) [Example 5.11, 4-(5-(2-ethoxyethyl)-4-methylthiazol-2-yl)-1-methyl-N-(2-phenyl-5,6,7,8-tetrahydro-[1,2,4]triazolo[1,5-a]pyridin-7-yl)-1H-pyrazole-5-carboxamide] | 5 to 100 |
| COC[C@H]1CCCN1c1nc2n(n1)CCC(NC(=O)c1c(-c3nc(C(F)F)cs3)cnn1C)C2 (stereo partly drawn) [Example 5.16, 4-(4-(difluoromethyl)thiazol-2-yl)-N-(2-((R)-2-(methoxymethyl)pyrrolidin-1-yl)-5,6,7,8-tetrahydro-[1,2,4]triazolo[1,5-a]pyridin-7-yl)-1-methyl-1H-pyrazole-5-carboxamide] | 5 to 100 |
| Cc1nc(-c2cnn(C)c2C(=O)NC2CCn3nc(-c4ccc(F)cc4)nc3C2)c(C)s1 (stereo not shown) [Example 5.28, 4-(2,5-dimethylthiazol-4-yl)-N-(2-(4-fluorophenyl)-5,6,7,8-tetrahydro-[1,2,4]triazolo[1,5-a]pyridin-7-yl)-1-methyl-1H-pyrazole-5-carboxamide] | 5 to 100 |
